This passage reports EC50 and Emax results from US12679878B2, “CRF2 receptor agonists and their use in therapy” (SANOFI, priority 2020, dated 2026).

Starred links: 1 amine or outer side, 2 acyl side, 3 side chain; linkers in the order of their positions; H or OH if unused. Non-standard residues stand in square brackets, D forms with d. Residues, ends and D or L forms follow the SMILES beside them. Groups on a side chain read outwards from the residue. *: point of attachment. C18 diacid = O=C(O)CCCCCCCCCCCCCCCCC(=O)*; γGlu = O=C(O)[C@H](CCC(=O)[*:2])N[*:1]; AEEA = NCCOCCOCC(=O)O; Aib = CC(C)(N)C(=O)O

The target in one assay is T1, CRF1R receptor (Homo sapiens, UniProt P34998).
T1 construct: host or cells: CHO-K1 clone 2
T1 sequence (P34998 24-415): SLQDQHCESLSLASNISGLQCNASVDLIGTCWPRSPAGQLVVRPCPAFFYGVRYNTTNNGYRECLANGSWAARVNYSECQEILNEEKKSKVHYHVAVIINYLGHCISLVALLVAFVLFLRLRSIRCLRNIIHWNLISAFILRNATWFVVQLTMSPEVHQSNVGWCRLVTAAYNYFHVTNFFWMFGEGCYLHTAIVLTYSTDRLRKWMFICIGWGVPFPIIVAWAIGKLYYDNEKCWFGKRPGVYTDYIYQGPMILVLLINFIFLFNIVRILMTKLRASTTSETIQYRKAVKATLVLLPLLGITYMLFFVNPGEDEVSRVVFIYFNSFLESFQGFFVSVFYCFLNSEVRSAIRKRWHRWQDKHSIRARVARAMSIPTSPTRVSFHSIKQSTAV
Description: cAMP activity at anti-target CRF1R, CHO-K1 cell line clone 2 (Example 19.10). It counts as cell-based. Conditions: CRF1R CHO-K1 clone 2; for EC50: 0% HSA, read-out: EC50 [nM] 0% HSA; for Emax: 100% = Sauvagine at 100 nM. In short, it runs like this:
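A CRF1R-overexpressing CHO-K1 line (clone 2) was grown in F12/10% FBS/G418 and frozen in aliquots before use. The cAMP assay followed the preceding procedure, with 100% activation defined by Sauvagine at 100 nM.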

In the next assay the target is T2, human CRF2α receptor (Homo sapiens, UniProt Q13324).
T2 construct: expressed in transfected cells; host or cells: TeloHEAC
T2 sequence (Q13324 1-411): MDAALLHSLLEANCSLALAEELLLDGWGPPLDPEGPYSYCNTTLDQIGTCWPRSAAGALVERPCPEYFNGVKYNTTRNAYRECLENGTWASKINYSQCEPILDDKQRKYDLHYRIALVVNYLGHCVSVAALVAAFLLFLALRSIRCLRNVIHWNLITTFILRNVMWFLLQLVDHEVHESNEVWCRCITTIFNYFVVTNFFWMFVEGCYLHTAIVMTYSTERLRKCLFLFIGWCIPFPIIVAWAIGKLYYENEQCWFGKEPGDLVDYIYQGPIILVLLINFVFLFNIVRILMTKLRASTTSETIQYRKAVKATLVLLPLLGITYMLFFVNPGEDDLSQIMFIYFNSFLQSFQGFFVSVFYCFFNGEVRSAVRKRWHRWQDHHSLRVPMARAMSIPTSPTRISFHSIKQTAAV
Kind of assay: cAMP agonism at human CRF2 α receptor in TeloHEAC cells (Example 7). It counts as cell-based. The following applies: cAMP HTRF, TeloHEAC cells stably expressing human CRF2 α, 0% HSA; read-out: EC50 [nM], 0% HSA. In outline: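 Percent activation was referenced to 1000 nM UCN2 (100%), and EC50 values taken as concentrations giving half of maximal response. The read-out was a homogeneous time-resolved fluorescence cAMP kit, fluorescence ratio 665/620 nm. Thawed cells (2000/well) saw compound for 30 min at RT in buffer with 2 mM IBMX and 0%/0.1% HSA.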
A general note: Time-resolved FRET reads energy transfer from a long-lived donor to a nearby acceptor.

Broadly, the EC50 is the midpoint of the concentration-response curve. What is called Emax is the greatest response seen or fitted, relative to the assay's reference. Regarding `CC[C@H](C)[C@H](N)C(=O)N[C@H](C(=O)N[C@@H](CC(C)C)C(=O)N[C@@H](CO)C(=O)N[C@@H](CC(C)C)C(=O)N[C@@H](CC(=O)O)C(=O)N[C@H](C(=O)N1CCC[C@H]1C(=O)N[C@H](C(=O)N[C@@H](CCCCN)C(=O)N[C@@H](CC(C)C)C(=O)N[C@@H](CCCCNC(=O)COCCOCCNC(=O)COCCOCCNC(=O)CC[C@H](NC(=O)CCCCCCCCCCCCCCCCC(=O)O)C(=O)O)C(=O)N[C@@H](CCC(N)=O)C(=O)N[C@H](C(=O)N[C@@H](CC(C)C)C(=O)N[C@@H](CC(C)C)C(=O)N[C@@H](CCCCN)C(=O)N[C@@H](CCC(N)=O)C(=O)N[C@@H](CCC(=O)O)C(=O)N[C@@H](CCCNC(=N)N)C(=O)N[C@@H](CCC(N)=O)C(=O)N[C@@H](CCCCN)C(=O)NC(C)(C)C(=O)N[C@@H](CCC(N)=O)C(=O)N[C@@H](CCCNC(=N)N)C(=O)N[C@@H](CCC(=O)O)C(=O)N[C@@H](CCCCN)C(=O)N[C@@H](C)C(=O)N[C@@H](CCC(=O)O)C(=O)N[C@H](C(=O)N[C@@H](CC(N)=O)C(=O)N[C@@H](CCCCN)C(=O)N[C@@H](CCC(N)=O)C(=O)N[C@H](C(=O)N[C@@H](CC(C)C)C(=O)N[C@@H](C)C(=O)N[C@@H](CCC(N)=O)C(=O)N[C@H](C(N)=O)C(C)C)[C@@H](C)CC)[C@@H](C)O)[C@@H](C)CC)[C@@H](C)CC)C(C)C)C(C)C` [compound 109] (H-IVLSLDVPIKLK([AEEA-AEEA-γGlu-C18 diacid])QILLKQERQK[Aib]QREKAETNKQILAQV-NH2), the EC50 on CRF1R receptor is more than 100 nM; at human CRF2α receptor, 0.95 nM. The same molecule yielded an Emax on CRF1R receptor of 1.1%.

Take `CC[C@H](C)[C@H](N)C(=O)N[C@H](C(=O)N[C@@H](CC(C)C)C(=O)N[C@@H](CO)C(=O)N[C@@H](CC(C)C)C(=O)N[C@@H](CC(=O)O)C(=O)N[C@H](C(=O)N1CCC[C@H]1C(=O)N[C@H](C(=O)N[C@@H](CCCCN)C(=O)N[C@@H](CC(C)C)C(=O)N[C@@H](CCCCNC(=O)COCCOCCNC(=O)COCCOCCNC(=O)CC[C@H](NC(=O)CCCCCCCCCCCCCCCCC(=O)O)C(=O)O)C(=O)N[C@@H](CCC(N)=O)C(=O)N[C@H](C(=O)N[C@@H](CC(C)C)C(=O)N[C@@H](CC(C)C)C(=O)N[C@@H](CCCCN)C(=O)N[C@@H](CCC(N)=O)C(=O)N[C@@H](CCC(=O)O)C(=O)N[C@@H](CCCNC(=N)N)C(=O)N[C@@H](CCC(N)=O)C(=O)N[C@@H](CCCCN)C(=O)NC(C)(C)C(=O)N[C@@H](CCC(N)=O)C(=O)N[C@@H](CCCNC(=N)N)C(=O)N[C@@H](CCC(N)=O)C(=O)N[C@@H](CCC(N)=O)C(=O)N[C@@H](C)C(=O)N[C@@H](CCC(=O)O)C(=O)N[C@H](C(=O)N[C@@H](CC(N)=O)C(=O)N[C@@H](CCCCN)C(=O)N[C@@H](CCC(N)=O)C(=O)N[C@H](C(=O)N[C@@H](CC(C)C)C(=O)N[C@@H](C)C(=O)N[C@@H](CCC(N)=O)C(=O)N[C@H](C(N)=O)C(C)C)[C@@H](C)CC)[C@@H](C)O)[C@@H](C)CC)[C@@H](C)CC)C(C)C)C(C)C` [compound 110] (H-IVLSLDVPIKLK([AEEA-AEEA-γGlu-C18 diacid])QILLKQERQK[Aib]QRQQAETNKQILAQV-NH2; N-terminus assumed): at CRF1R receptor, the EC50 is more than 100 nM and the maximum response (Emax) turned out to be 5.4%. Further, on human CRF2α receptor, the half-maximal effective concentration (EC50) came to 0.18 nM.
